According to publication PMC7497679, “Structure-based design, synthesis, and evaluation of the biological activity of novel phosphoroorganic small molecule IAP antagonists” (Investigational New Drugs, 2020):
Read-outs that look alike come from different tables or passages of the source. Square brackets hold non-standard residues; d marks the D form. Ends that are not written are not given here. Chg = N[C@H](C(=O)O)C1CCCCC1; NMeA = CN[C@@H](C)C(=O)O

Molecular target: T1, XIAP BIR3 domain (Homo sapiens, UniProt P98170)
T1 construct: fluorescent probe 4 and the XIAP BIR3 domain (Sino Biological, Beijing, China) were used for all measurements; purchased Sino Biological, Beijing, China
Test: Fluorescence polarization inhibition (competition) assay
Assay type: binding
Settings: for inhibition at 50 µM: 0.5 h, antagonist 50 µM, inhibition of protein-probe interaction; for Ki / EC50: XIAP BIR3 50 nM, fluorescent probe 4 2 nM; for interaction with the XIAP BIR3 domain (in words): fluorescence polarization
Method: The fluorescence polarization assay was performed at r.t. in Corning 384-well black, polystyrene flat bottom plates (Corning, NY, USA) on a Synergy H4 Hybrid Reader (BioTek, Bad Friedrichshall, Germany). For fluorescence polarization measurements, (milipolarization units, mP) 484/20 nm excitation and 528/20 nm emission filters were selected. Phosphate buffer (pH 7.5) supplemented with γ-globulin (100 µg/mL) and NaN3 (0.02% w/v), fluorescent probe 4 and the XIAP BIR3 domain (Sino Biological, Beijing, China) were used for all measurements. All experiments were performed in duplicate. The obtained fluorescence polarization assay data were analyzed with Prism 5.0 Software (GraphPad Software, San Diego, ca.).
After a 15 min incubation at r.t., fluorescent probe 4 (2 nM) was added. The values were measured 30 min after the moment the probe was added. The assay was performed in phosphate buffer with a final DMSO concentration of 1.4% (v/v). […] In order to evaluate the quality and precision of the performed screening assay, we determined the Z´ factor as described by Zhang et al.. The obtained fluorescence polarization values were used to determine the percent inhibition, which was plotted as a function of the protein concentration. The EC50 and Ki values were calculated with GraphPad software (log(agonist) vs. response (variable slope) model) in combination with the web tool developed by Nikolovska-Coleska et al..
Fluorescence polarization inhibition assay and data analysis for 41m and 42m compounds was performed as described in the Material and Methods section of the manuscript. Briefly, 50 nM solution of the BIR3 XIAP protein in polarization buffer was added into phosphoroorganic compound solution (from 50 μM to 0.0537 nM). After 15 min incubation at r.t. the fluorescent probe 4 (2 nM) was added.
The values were read after 30 minutes from the moment the probe was added. The obtained fluorescence polarization values were used to determine the percentage of inhibition which was plotted as a function of the protein concentration (Supplementary Figure S4).
(1 picture or pasted object on this page, not shown here)

T1 sequence (P98170 252-356 limits assumed): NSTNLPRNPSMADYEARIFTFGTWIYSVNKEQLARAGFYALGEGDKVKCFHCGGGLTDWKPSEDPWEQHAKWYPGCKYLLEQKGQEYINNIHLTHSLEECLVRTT

| Molecule | inhibition at 50 µM [%] | Ki [µM] | EC50 (read-out: EC50) [µM] | EC50 (read-out: log EC50 (converted)) [µM] | interaction with the XIAP BIR3 domain (in words) |
| --- | --- | --- | --- | --- | --- |
| CN[C@@H](C)C(=O)N[C@H](C(=O)N1CCC[C@H]1C(=O)NCP(=O)(c1cc(C)cc(C)c1)c1cc(C)cc(C)c1)C(C)C [Compound 20, (S)-N-((bis(3,5-dimethylphenyl)phosphoryl)methyl)-1-((S)-3-methyl-2-((S)-2-(methylamino)propanamido)butanoyl)pyrrolidine-2-carboxamide] | 50 | 23.8 | 48 | 48 |  |
| CN[C@@H](C)C(=O)N[C@H](C(=O)N1CCC[C@H]1C(=O)NCP(=O)(c1cc(C)cc(C)c1)c1cc(C)cc(C)c1)C1CCCCC1 [Compound 21] | 74.4 | 11.2 | 22.5 | 22.5 |  |
| CN[C@@H](C)C(=O)N[C@H](C(=O)N1CCC[C@H]1C(=O)NC(C)P(=O)(c1cc(C)cc(C)c1)c1cc(C)cc(C)c1)C(C)C (stereo partly drawn) [Compound 22] | 59.2 | 16.1 | 32.5 | 32.4 |  |
| CCc1ccc(OP(=O)(Oc2ccc(CC)cc2)C(C)NC(=O)[C@@H]2CCCN2C(=O)[C@@H](NC(=O)[C@H](C)NC)C(C)C)cc1 (stereo partly drawn) [Compound 23] | 64.1 | 17 | 34.2 | 34.3 |  |
| CCc1ccc(OP(=O)(Oc2ccc(CC)cc2)C(C)NC(=O)[C@@H]2CCCN2C(=O)[C@@H](NC(=O)[C@H](C)NC)C2CCCCC2)cc1 (stereo partly drawn) [Compound 24] | 74.1 | 10.2 | 20.5 | 20.6 |  |
| CN[C@@H](C)C(=O)N[C@H](C(=O)N1CCC[C@H]1C(=O)NC(C)P(=O)(Oc1ccc(C(C)C)cc1)Oc1ccc(C(C)C)cc1)C(C)C (stereo partly drawn) [Compound 25] | 81.8 | 10.9 | 22 | 22 |  |
| CN[C@@H](C)C(=O)N[C@H](C(=O)N1CCC[C@H]1C(=O)NC(C)P(=O)(Oc1ccc(C(C)C)cc1)Oc1ccc(C(C)C)cc1)C1CCCCC1 (stereo partly drawn) [Compound 26] | 85.8 | 9.84 | 19.8 | 19.8 |  |
| CN[C@@H](C)C(=O)N[C@H](C(=O)N1CCC[C@H]1C(=O)NC(C)P(=O)(Oc1ccc(C(C)(C)C)cc1)Oc1ccc(C(C)(C)C)cc1)C(C)C (stereo partly drawn) [Compound 27, bis(4-(tert-butyl)phenyl) (1-((S)-1-((S)-3-methyl-2-((S)-2-(methylamino)propanamido)butanoyl)pyrrolidine-2-carboxamido)ethyl)phosphonate] | 83.3 | 10.5 | 21.3 | 21.3 |  |
| CN[C@@H](C)C(=O)N[C@H](C(=O)N1CCC[C@H]1C(=O)NC(C)P(=O)(Oc1ccc(C(C)(C)C)cc1)Oc1ccc(C(C)(C)C)cc1)C1CCCCC1 (stereo partly drawn) [Compound 28, bis(4-(tert-butyl)phenyl) (1-((S)-1-((S)-2-cyclohexyl-2-((S)-2-(methylamino)propanamido)acetyl)pyrrolidine-2-carboxamido)ethyl)phosphonate] | 77.3 | 13.3 | 26.8 | 26.7 |  |
| CN[C@@H](C)C(=O)N[C@H](C(=O)N1CCC[C@H]1C(=O)NC(C)P(=O)(Oc1ccccc1)Oc1ccccc1)C(C)C (stereo partly drawn) [Compound 29, diphenyl (1-((S)-1-((S)-3-methyl-2-((S)-2-(methylamino)propanamido)butanoyl)pyrrolidine-2-carboxamido)ethyl)phosphonate] | 62.1 | 15.8 | 31.9 | 31.8 |  |
| CN[C@@H](C)C(=O)N[C@H](C(=O)N1CCC[C@H]1C(=O)NC(C)P(=O)(Oc1ccccc1)Oc1ccccc1)C1CCCCC1 (stereo partly drawn) [Compound 30, diphenyl (1-((S)-1-((S)-2-cyclohexyl-2-((S)-2-(methylamino)propanamido)acetyl)pyrrolidine-2-carboxamido)ethyl)phosphonate] | 69 | 15 | 30.2 | 30.3 |  |
| CCC(NC(=O)[C@@H]1CCCN1C(=O)[C@@H](NC(=O)[C@H](C)NC)C(C)C)P(=O)(Oc1ccccc1)Oc1ccccc1 (stereo partly drawn) [Compound 31, diphenyl (1-((S)-1-((S)-3-methyl-2-((S)-2-(methylamino)propanamido)butanoyl)pyrrolidine-2-carboxamido)propyl)phosphonate] | 57 | 18.8 | 38 | 38 |  |
| CCC(NC(=O)[C@@H]1CCCN1C(=O)[C@@H](NC(=O)[C@H](C)NC)C1CCCCC1)P(=O)(Oc1ccccc1)Oc1ccccc1 (stereo partly drawn) [Compound 32, diphenyl (1-((S)-1-((S)-2-cyclohexyl-2-((S)-2-(methylamino)propanamido)acetyl)pyrrolidine-2-carboxamido)propyl)phosphonate] | 71 | 11.9 | 24 | 24 |  |
| CN[C@@H](C)C(=O)N[C@H](C(=O)N1CCC[C@H]1C(=O)NC(C(C)C)P(=O)(Oc1ccccc1)Oc1ccccc1)C(C)C (stereo partly drawn) [Compound 33, diphenyl (2-methyl-1-((S)-1-((S)-3-methyl-2-((S)-2-(methylamino)propanamido)butanoyl)pyrrolidine-2-carboxamido)propyl)phosphonate] | 58.5 | 17.4 | 35 | 34.9 |  |
| CN[C@@H](C)C(=O)N[C@H](C(=O)N1CCC[C@H]1C(=O)NC(C(C)C)P(=O)(Oc1ccccc1)Oc1ccccc1)C1CCCCC1 (stereo partly drawn) [Compound 34] | 70.5 | 11.8 | 23.9 | 23.9 |  |
| CCC(C)C(NC(=O)[C@@H]1CCCN1C(=O)[C@@H](NC(=O)[C@H](C)NC)C(C)C)P(=O)(Oc1ccccc1)Oc1ccccc1 (stereo partly drawn) [Compound 35] | 77.4 | 8.84 | 17.8 | 17.8 |  |
| CCC(C)C(NC(=O)[C@@H]1CCCN1C(=O)[C@@H](NC(=O)[C@H](C)NC)C1CCCCC1)P(=O)(Oc1ccccc1)Oc1ccccc1 (stereo partly drawn) [Compound 36] | 81.4 | 8.05 | 16.2 | 16.3 |  |
| CN[C@@H](C)C(=O)N[C@H](C(=O)N1CCC[C@H]1C(=O)NC(CC(C)C)P(=O)(Oc1ccccc1)Oc1ccccc1)C(C)C (stereo partly drawn) [Compound 37] | 67.4 | 14 | 28.1 | 28.1 |  |
| CN[C@@H](C)C(=O)N[C@H](C(=O)N1CCC[C@H]1C(=O)NC(CC(C)C)P(=O)(Oc1ccccc1)Oc1ccccc1)C1CCCCC1 (stereo partly drawn) [Compound 38] | 84.2 | 5.25 | 10.6 | 10.6 |  |
| CN[C@@H](C)C(=O)N[C@H](C(=O)N1CCC[C@H]1C(=O)NC(CCSC)P(=O)(Oc1ccccc1)Oc1ccccc1)C(C)C (stereo partly drawn) [Compound 39] | 65.8 | 13 | 26.2 | 26.2 |  |
| CN[C@@H](C)C(=O)N[C@H](C(=O)N1CCC[C@H]1C(=O)NC(CCSC)P(=O)(Oc1ccccc1)Oc1ccccc1)C1CCCCC1 (stereo partly drawn) [Compound 40, diphenyl (1-((S)-1-((S)-2-cyclohexyl-2-((S)-2-(methylamino)propanamido)acetyl)pyrrolidine-2-carboxamido)-3-(methylthio)propyl)phosphonate] | 73.8 | 13 | 26.3 | 26.3 |  |
| CN[C@@H](C)C(=O)N[C@H](C(=O)N1CCC[C@H]1C(=O)NC(CCc1ccccc1)P(=O)(Oc1ccccc1)Oc1ccccc1)C(C)C (stereo partly drawn) [Compound 43] | 85.4 |  | 17.2 | 17.2 |  |
| CN[C@@H](C)C(=O)N[C@H](C(=O)N1CCC[C@H]1C(=O)NC(CCc1ccccc1)P(=O)(Oc1ccccc1)Oc1ccccc1)C1CCCCC1 (stereo partly drawn) [Compound 44, diphenyl (1-((S)-1-((S)-2-cyclohexyl-2-((S)-2-(methylamino)propanamido)acetyl)pyrrolidine-2-carboxamido)-3-phenylpropyl)phosphonate] | 86.5 | 7.57 | 15.3 | 15.3 |  |
| [NMeA]-Val-Pro-OH [Compound 1] |  |  |  |  | did not interact with the XIAP BIR3 domain at a significant level |
| [NMeA]-[Chg]-Pro-OH [Compound 2] |  |  |  |  | did not interact with the XIAP BIR3 domain at a significant level |
